The subject of the data set is full length human vWF (SEQ ID NO 7). The data set is described as follows: dot blot KD determination and extent of binding, full length human vWF.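 As to all read-outs here: dot blot binding of aptamers to full length human vWF across a protein titration, incubated 30 minutes at room temperature in 1x DPBS with BSA.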 The following applies: for % binding @ 100 nM vWF / Kd: Phase 1 modification; for % binding @ 100 nM vWF: extent of aptamer binding at 100 nM full length human vWF; for Kd: full length human vWF, 8 point protein titration, read-out: KD.

Broadly, the Kd is the free concentration of one partner at which half of the binding sites on the other are occupied at equilibrium, for simple one-to-one binding.

Oligonucleotides are written 5' to 3', each unit as a sugar letter and its base; * is a phosphorothioate linkage, no mark a phosphodiester; rarer units and linkages stand in square brackets, end groups in braces. Plain capitals give the bases only. [invdT] = inverted (3'-3') thymidine; d = 2'-deoxy (DNA); m = 2'-O-methyl

Consider “ARC1115: ARC1029 with PEG spacer replaced with a short oligonucleotide sequence, dTdTdC (DNA GGCGTGCAGTGCCTTCGGCCGTGCGGTGCCTCCGTCACGCC; unmodified DNA)”, for which the “% binding @ 100 nM vWF” value was found to be 36%. Further, the Kd (dot blot) was 2 nM. For the same substance, for the setting “in words, dot blot”, the “binding to human vWF” value is “shown to bind”.
Take “ARC1194: ARC1172 with one residue replaced by 2'-O methyl residue (DNA mGdGdCdGdTdGdCdAdGdTdGdCdCdTdTdCdGdGdCdCdGdTdGdCdGdGdTdGdCdCdTdCdCdGdTdCdAdCdGdCdC[invdT]; aptamer)”: the “% binding @ 100 nM vWF” value is on record as 46%. Further, the Kd (dot blot) was 3 nM.
On to “ARC1195: ARC1172 with one residue replaced by 2'-O methyl residue (DNA dGmGdCdGdTdGdCdAdGdTdGdCdCdTdTdCdGdGdCdCdGdTdGdCdGdGdTdGdCdCdTdCdCdGdTdCdAdCdGdCdC[invdT]; aptamer)”, for which the “% binding @ 100 nM vWF” value came to 55%. Moreover, the Kd (dot blot) amounted to 1 nM.
Turning to “ARC1196: ARC1172 with one residue replaced by 2'-O methyl residue (DNA dGdGmCdGdTdGdCdAdGdTdGdCdCdTdTdCdGdGdCdCdGdTdGdCdGdGdTdGdCdCdTdCdCdGdTdCdAdCdGdCdC[invdT]; aptamer)”, the “% binding @ 100 nM vWF” value came out at 46%. For the setting “dot blot”, the dissociation constant Kd came to 2 nM.
The like results for “ARC1197: ARC1172 with one residue replaced by 2'-O methyl residue (DNA dGdGdCmGdTdGdCdAdGdTdGdCdCdTdTdCdGdGdCdCdGdTdGdCdGdGdTdGdCdCdTdCdCdGdTdCdAdCdGdCdC[invdT]; aptamer)” were, in that order, 46% and 2 nM.
Turning to “ARC1198: ARC1172 with one residue replaced by 2'-O methyl residue (DNA dGdGdCdGmUdGdCdAdGdTdGdCdCdTdTdCdGdGdCdCdGdTdGdCdGdGdTdGdCdCdTdCdCdGdTdCdAdCdGdCdC[invdT]; aptamer)”, the “% binding @ 100 nM vWF” value was 50%. Under “dot blot”, the Kd came to 0.9 nM.
For the substance “ARC1199: ARC1172 with one residue replaced by 2'-O methyl residue (DNA dGdGdCdGdTmGdCdAdGdTdGdCdCdTdTdCdGdGdCdCdGdTdGdCdGdGdTdGdCdCdTdCdCdGdTdCdAdCdGdCdC[invdT]; aptamer)”, the “% binding @ 100 nM vWF” value worked out at 28%. The Kd (dot blot) turned out to be 19 nM.
Taken in the same sequence, the figures for “ARC1200: ARC1172 with one residue replaced by 2'-O methyl residue (DNA dGdGdCdGdTdGmCdAdGdTdGdCdCdTdTdCdGdGdCdCdGdTdGdCdGdGdTdGdCdCdTdCdCdGdTdCdAdCdGdCdC[invdT]; aptamer)” were 25% and 5 nM.
The like results for “ARC1201: ARC1172 with one residue replaced by 2'-O methyl residue (DNA dGdGdCdGdTdGdCmAdGdTdGdCdCdTdTdCdGdGdCdCdGdTdGdCdGdGdTdGdCdCdTdCdCdGdTdCdAdCdGdCdC[invdT]; aptamer)” were, in that order, 6% and 0.9 nM.
The like results for “ARC1202: ARC1172 with one residue replaced by 2'-O methyl residue (DNA dGdGdCdGdTdGdCdAmGdTdGdCdCdTdTdCdGdGdCdCdGdTdGdCdGdGdTdGdCdCdTdCdCdGdTdCdAdCdGdCdC[invdT]; aptamer)” were, in that order, 56% and 0.4 nM.
Turning to “ARC1203: ARC1172 with one residue replaced by 2'-O methyl residue (DNA dGdGdCdGdTdGdCdAdGmUdGdCdCdTdTdCdGdGdCdCdGdTdGdCdGdGdTdGdCdCdTdCdCdGdTdCdAdCdGdCdC[invdT]; aptamer)”, the “% binding @ 100 nM vWF” value was 40%. Besides, the Kd (dot blot) stood at 3 nM.
As for “ARC1204: ARC1172 with one residue replaced by 2'-O methyl residue (DNA dGdGdCdGdTdGdCdAdGdTmGdCdCdTdTdCdGdGdCdCdGdTdGdCdGdGdTdGdCdCdTdCdCdGdTdCdAdCdGdCdC[invdT]; aptamer)”, the “% binding @ 100 nM vWF” value was determined as 45%. Moreover, the Kd (dot blot) worked out at 2 nM.
The like results for “ARC1205: ARC1172 with one residue replaced by 2'-O methyl residue (DNA dGdGdCdGdTdGdCdAdGdTdGmCdCdTdTdCdGdGdCdCdGdTdGdCdGdGdTdGdCdCdTdCdCdGdTdCdAdCdGdCdC[invdT]; aptamer)” were, in that order, 50% and 1 nM.
As for “ARC1206: ARC1172 with one residue replaced by 2'-O methyl residue (DNA dGdGdCdGdTdGdCdAdGdTdGdCmCdTdTdCdGdGdCdCdGdTdGdCdGdGdTdGdCdCdTdCdCdGdTdCdAdCdGdCdC[invdT]; aptamer)”, the “% binding @ 100 nM vWF” value is on record as 50%. For the same substance, the Kd (dot blot) worked out at 2 nM.
Taken in the same sequence, the figures for “ARC1207: ARC1172 with one residue replaced by 2'-O methyl residue (DNA dGdGdCdGdTdGdCdAdGdTdGdCdCmUdTdCdGdGdCdCdGdTdGdCdGdGdTdGdCdCdTdCdCdGdTdCdAdCdGdCdC[invdT]; aptamer)” were 54% and 2 nM.
Take “ARC1208: ARC1172 with one residue replaced by 2'-O methyl residue (DNA dGdGdCdGdTdGdCdAdGdTdGdCdCdTmUdCdGdGdCdCdGdTdGdCdGdGdTdGdCdCdTdCdCdGdTdCdAdCdGdCdC[invdT]; aptamer)”: the “% binding @ 100 nM vWF” value is 45%. For the same substance, under “dot blot”, the Kd turned out to be 2 nM.
Consider “ARC1209: ARC1172 with one residue replaced by 2'-O methyl residue (DNA dGdGdCdGdTdGdCdAdGdTdGdCdCdTdTmCdGdGdCdCdGdTdGdCdGdGdTdGdCdCdTdCdCdGdTdCdAdCdGdCdC[invdT]; aptamer)”, for which the “% binding @ 100 nM vWF” value is reported as 44%. Besides, where the note is “dot blot”, the Kd was found to be 2 nM.
For “ARC1210: ARC1172 with one residue replaced by 2'-O methyl residue (DNA dGdGdCdGdTdGdCdAdGdTdGdCdCdTdTdCmGdGdCdCdGdTdGdCdGdGdTdGdCdCdTdCdCdGdTdCdAdCdGdCdC[invdT]; aptamer)”, the “% binding @ 100 nM vWF” value was found to be 49%. For the same substance, the Kd (dot blot) worked out at 2 nM.
With “ARC1211: ARC1172 with one residue replaced by 2'-O methyl residue (DNA dGdGdCdGdTdGdCdAdGdTdGdCdCdTdTdCdGmGdCdCdGdTdGdCdGdGdTdGdCdCdTdCdCdGdTdCdAdCdGdCdC[invdT]; aptamer)”, the “% binding @ 100 nM vWF” value was 47%. In addition, for the setting “dot blot”, the Kd was 2 nM.
In the case of “ARC1212: ARC1172 with one residue replaced by 2'-O methyl residue (DNA dGdGdCdGdTdGdCdAdGdTdGdCdCdTdTdCdGdGmCdCdGdTdGdCdGdGdTdGdCdCdTdCdCdGdTdCdAdCdGdCdC[invdT]; aptamer)”, the “% binding @ 100 nM vWF” value is reported as 49%. Also, the Kd (dot blot) is 2 nM.
Taken in the same sequence, the figures for “ARC1213: ARC1172 with one residue replaced by 2'-O methyl residue (DNA dGdGdCdGdTdGdCdAdGdTdGdCdCdTdTdCdGdGdCmCdGdTdGdCdGdGdTdGdCdCdTdCdCdGdTdCdAdCdGdCdC[invdT]; aptamer)” were 43% and 6 nM.
Taken in the same sequence, the figures for “ARC1214: ARC1172 with one residue replaced by 2'-O methyl residue (DNA dGdGdCdGdTdGdCdAdGdTdGdCdCdTdTdCdGdGdCdCmGdTdGdCdGdGdTdGdCdCdTdCdCdGdTdCdAdCdGdCdC[invdT]; aptamer)” were 39% and 3 nM.
On to “ARC1215: ARC1172 with one residue replaced by 2'-O methyl residue (DNA dGdGdCdGdTdGdCdAdGdTdGdCdCdTdTdCdGdGdCdCdGmUdGdCdGdGdTdGdCdCdTdCdCdGdTdCdAdCdGdCdC[invdT]; aptamer)”, for which the “% binding @ 100 nM vWF” value came out at 2%. Moreover, the Kd (dot blot) was 3 nM.
On to “ARC1216: ARC1172 with one residue replaced by 2'-O methyl residue (DNA dGdGdCdGdTdGdCdAdGdTdGdCdCdTdTdCdGdGdCdCdGdTmGdCdGdGdTdGdCdCdTdCdCdGdTdCdAdCdGdCdC[invdT]; aptamer)”, for which the “% binding @ 100 nM vWF” value amounted to 40%. Besides, the Kd (dot blot) was determined as 0.6 nM.
Taken in the same sequence, the figures for “ARC1217: ARC1172 with one residue replaced by 2'-O methyl residue (DNA dGdGdCdGdTdGdCdAdGdTdGdCdCdTdTdCdGdGdCdCdGdTdGmCdGdGdTdGdCdCdTdCdCdGdTdCdAdCdGdCdC[invdT]; aptamer)” were 18% and 14 nM.
Regarding “ARC1218: ARC1172 with one residue replaced by 2'-O methyl residue (DNA dGdGdCdGdTdGdCdAdGdTdGdCdCdTdTdCdGdGdCdCdGdTdGdCmGdGdTdGdCdCdTdCdCdGdTdCdAdCdGdCdC[invdT]; aptamer)”, the “% binding @ 100 nM vWF” value is 2%. The dissociation constant (Kd) (dot blot) amounted to 32 nM.
For “ARC1219: ARC1172 with one residue replaced by 2'-O methyl residue (DNA dGdGdCdGdTdGdCdAdGdTdGdCdCdTdTdCdGdGdCdCdGdTdGdCdGmGdTdGdCdCdTdCdCdGdTdCdAdCdGdCdC[invdT]; aptamer)”, the “% binding @ 100 nM vWF” value was found to be 33%. Moreover, the Kd (dot blot) worked out at 3 nM.
In the case of “ARC1220: ARC1172 with one residue replaced by 2'-O methyl residue (dGdGdCdGdTdGdCdAdGdTdGdCdCdTdTdCdGdGdCdCdGdTdGdCdGdGmUdGdCdCdTdCdCdGdTdCdAdCdGdCdC[invdT]; aptamer)”, the “% binding @ 100 nM vWF” value was found to be 17%. The Kd (dot blot) was 11 nM.
Regarding “ARC1221: ARC1172 with one residue replaced by 2'-O methyl residue (dGdGdCdGdTdGdCdAdGdTdGdCdCdTdTdCdGdGdCdCdGdTdGdCdGdGdTmGdCdCdTdCdCdGdTdCdAdCdGdCdC[invdT]; aptamer)”, the “% binding @ 100 nM vWF” value came to 43%. Further, the Kd (dot blot) is 1 nM.

The values above are taken from patent US7998940B2, “Aptamers to von Willebrand factor and their use as thrombotic disease therapeutics” (Archemix Corp., priority 2004, dated 2011).
